Reference: patent US9120812B2, “Pyrimidooxazocine derivatives as mTOR-inhibitors” (SANOFI, priority 2012, dated 2015)
Where two headings read alike, the source gives them in different places.

Legend:
[1] = target: PI3Kα (p110α/p85α) (Homo sapiens (Human), UniProt P42336); experiment: PI3Kα enzymatic test by measuring the consumption of ATP; format: biochemical
Procedure, shortened: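 ATP consumption read out by KinaseGlo luminescence after a 90 min reaction of 1.7 μg/ml PI3Kα (p110α/p85α) with 2 μM ATP and 50 μM PIP2, buffered at pH 7.5 (Tris, 10 mM MgCl2, 1 mM EGTA, 0.03% Chaps, 1 mM DTT). Threefold dilution series over ≥10 000-fold range yield IC50.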

[2] = system: U87MG tumour cells; experiment: Test of in vitro proliferation of U87MG tumour cells; format: cell-based; details: Homo sapiens, U-87 MG, 72 h
Procedure: Model 4: Test of in vitro Proliferation of U87MG Tumour Cells.
The cell growth is determined with the reagent CellTiter 96 AQueous One Solution Cell Proliferation Assay from Promega (Cat. No. G3581).

[3] = system: Akt-pS473 in U87MG cells
[4] = target: mTOR (human recombinant aa mTOR 1360-2549) (Homo sapiens (Human), UniProt P42345); experiment: mTOR enzymatic test by TR-FRET (phosphorylation of GFP-4EBP1); format: biochemical
Procedure, shortened: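 After a 30 min room-temperature kinase reaction, EDTA (10 mM final) and Tb-labelled phospho-Thr46 antibody (2 nM final) were added and incubated 60 min. Energy transfer from Tb to phosphorylated GFP-4EBP1 was read at 340 nm excitation, emissions 490/520 nm. Values derive from the 520/490 fluorescence ratio.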

[5] = U87MG cells, 72 hours, read-out: U87 Cell Proliferation IC50
[6] = Homo sapiens, U-87 MG, read-out: U87 Akt-pS473 % Inhibition or IC50, nM (IC50), U87MG cells

Chain of mTOR (human recombinant aa mTOR 1360-2549) (P42345 1360-2549): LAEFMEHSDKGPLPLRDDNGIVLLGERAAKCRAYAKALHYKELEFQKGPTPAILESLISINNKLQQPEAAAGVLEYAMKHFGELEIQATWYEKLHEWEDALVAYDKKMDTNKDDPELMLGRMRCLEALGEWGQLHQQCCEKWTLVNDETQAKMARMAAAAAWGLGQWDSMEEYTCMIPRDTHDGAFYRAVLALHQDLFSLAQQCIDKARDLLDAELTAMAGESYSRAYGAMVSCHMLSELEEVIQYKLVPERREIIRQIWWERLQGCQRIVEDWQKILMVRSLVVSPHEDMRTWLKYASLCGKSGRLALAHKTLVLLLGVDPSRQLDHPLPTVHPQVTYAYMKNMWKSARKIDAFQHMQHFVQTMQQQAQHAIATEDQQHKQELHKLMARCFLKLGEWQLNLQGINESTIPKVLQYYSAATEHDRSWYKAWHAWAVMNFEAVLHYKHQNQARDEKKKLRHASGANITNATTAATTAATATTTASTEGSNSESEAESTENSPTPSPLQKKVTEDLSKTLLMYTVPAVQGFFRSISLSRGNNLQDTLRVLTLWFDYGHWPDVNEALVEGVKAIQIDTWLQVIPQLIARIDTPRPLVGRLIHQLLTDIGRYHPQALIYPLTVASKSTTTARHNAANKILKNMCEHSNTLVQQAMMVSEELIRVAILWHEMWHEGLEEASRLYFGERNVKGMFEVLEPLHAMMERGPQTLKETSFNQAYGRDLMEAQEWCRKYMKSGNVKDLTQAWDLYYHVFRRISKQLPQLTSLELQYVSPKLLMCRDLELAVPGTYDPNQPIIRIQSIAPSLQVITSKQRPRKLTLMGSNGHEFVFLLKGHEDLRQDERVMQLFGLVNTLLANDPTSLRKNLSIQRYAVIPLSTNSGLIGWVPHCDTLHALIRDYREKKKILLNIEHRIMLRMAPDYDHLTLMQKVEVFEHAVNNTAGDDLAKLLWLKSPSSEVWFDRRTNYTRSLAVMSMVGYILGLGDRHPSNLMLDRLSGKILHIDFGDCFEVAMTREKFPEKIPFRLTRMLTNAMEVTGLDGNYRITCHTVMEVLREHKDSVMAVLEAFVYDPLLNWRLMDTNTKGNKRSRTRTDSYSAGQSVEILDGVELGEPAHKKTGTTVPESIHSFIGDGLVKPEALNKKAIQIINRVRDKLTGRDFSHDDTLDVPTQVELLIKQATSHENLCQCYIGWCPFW
Chain of PI3Kα (p110α/p85α) (P42336 whole entry): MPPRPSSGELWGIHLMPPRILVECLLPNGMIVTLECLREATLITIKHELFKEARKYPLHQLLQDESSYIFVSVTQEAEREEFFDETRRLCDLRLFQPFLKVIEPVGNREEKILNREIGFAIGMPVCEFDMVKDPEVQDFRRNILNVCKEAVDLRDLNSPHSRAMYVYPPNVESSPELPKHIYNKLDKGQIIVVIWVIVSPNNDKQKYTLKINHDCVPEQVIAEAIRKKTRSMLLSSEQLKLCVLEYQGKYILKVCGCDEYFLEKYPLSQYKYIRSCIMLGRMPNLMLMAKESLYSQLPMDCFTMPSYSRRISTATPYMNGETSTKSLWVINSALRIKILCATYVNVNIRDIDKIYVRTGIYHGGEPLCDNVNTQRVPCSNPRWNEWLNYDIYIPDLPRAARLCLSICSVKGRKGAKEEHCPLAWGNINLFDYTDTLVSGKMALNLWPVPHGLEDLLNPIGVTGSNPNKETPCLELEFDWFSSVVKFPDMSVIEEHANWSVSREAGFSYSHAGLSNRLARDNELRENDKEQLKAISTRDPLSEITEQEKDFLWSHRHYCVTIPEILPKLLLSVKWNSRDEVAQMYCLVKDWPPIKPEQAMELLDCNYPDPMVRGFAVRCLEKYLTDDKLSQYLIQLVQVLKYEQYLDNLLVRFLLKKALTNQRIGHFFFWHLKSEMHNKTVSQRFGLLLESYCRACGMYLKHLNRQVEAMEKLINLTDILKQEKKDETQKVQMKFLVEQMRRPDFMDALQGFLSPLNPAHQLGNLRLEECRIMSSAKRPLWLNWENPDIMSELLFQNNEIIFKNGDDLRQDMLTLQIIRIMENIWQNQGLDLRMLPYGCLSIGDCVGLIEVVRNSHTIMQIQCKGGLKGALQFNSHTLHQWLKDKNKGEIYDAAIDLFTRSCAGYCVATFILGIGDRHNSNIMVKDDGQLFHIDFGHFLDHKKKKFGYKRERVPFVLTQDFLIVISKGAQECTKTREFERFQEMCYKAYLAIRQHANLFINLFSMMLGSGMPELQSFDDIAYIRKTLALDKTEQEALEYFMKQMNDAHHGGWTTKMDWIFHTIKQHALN
Chain of PI3Kα (p110α/p85α) (P27986 whole entry partner): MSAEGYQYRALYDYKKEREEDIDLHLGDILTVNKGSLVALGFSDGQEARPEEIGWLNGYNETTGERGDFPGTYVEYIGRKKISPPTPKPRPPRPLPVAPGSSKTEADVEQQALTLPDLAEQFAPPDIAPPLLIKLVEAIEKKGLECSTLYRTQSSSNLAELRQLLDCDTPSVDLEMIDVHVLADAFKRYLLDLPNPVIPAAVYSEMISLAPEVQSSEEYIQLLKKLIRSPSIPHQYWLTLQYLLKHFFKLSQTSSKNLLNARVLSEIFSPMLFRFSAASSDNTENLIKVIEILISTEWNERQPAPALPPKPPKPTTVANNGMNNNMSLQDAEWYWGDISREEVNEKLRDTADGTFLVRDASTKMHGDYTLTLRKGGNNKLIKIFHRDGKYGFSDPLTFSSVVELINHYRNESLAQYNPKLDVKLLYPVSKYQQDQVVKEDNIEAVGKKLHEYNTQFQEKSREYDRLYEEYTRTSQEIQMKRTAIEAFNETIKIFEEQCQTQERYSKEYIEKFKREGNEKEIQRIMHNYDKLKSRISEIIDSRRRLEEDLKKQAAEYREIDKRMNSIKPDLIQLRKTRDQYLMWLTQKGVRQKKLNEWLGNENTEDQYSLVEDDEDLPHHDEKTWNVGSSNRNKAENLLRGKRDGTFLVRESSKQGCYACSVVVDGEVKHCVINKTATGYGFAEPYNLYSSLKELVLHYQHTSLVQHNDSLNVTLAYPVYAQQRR

| Compound | PI3Ka IC50 [1] [µM] | IC50 [2, 5] [nM] | IC50 [3, 6] [nM] | IC50 [4] [nM] | IC50 ([3]; read-out: U87 Akt-pS473 % Inhibition or IC50, nM (IC50), U87MG cells) [nM] | IC50 ([2]; read-out: U87 Cell Proliferation IC50, nM) [nM] | IC50 ([3]; Homo sapiens, U-87 MG, read-out: U87 Akt-pS473 % Inhibition or IC50, nM (IC50)) [nM] |
| --- | --- | --- | --- | --- | --- | --- | --- |
| Cc1ccc(NC(=O)Nc2ccc(-c3nc(N4CC5CCC(C4)O5)nc4c3C(=O)N(C)CC(C)(C)O4)cc2F)cn1 [Example 66, 1-{2-Fluoro-4-[6,8,8-trimethyl-2-(8-oxa-3-azabicyclo[3.2.1]oct-3-yl)-5-oxo-5,6,7,8-tetrahydro-9-oxa-1,3,6-triazabenzocyclohepten-4-yl]phenyl}-3-(6-methylpyridin-3-yl)urea] | 2.95 | 71 | 21 | 16 |  |  |  |
| CCN1CC(C)(C)Oc2nc(N3CC4CCC(C3)O4)nc(-c3ccc(NC(=O)Nc4ccc(OC)nc4)c(F)c3)c2C1=O [Example 124, 1-{4-[6-Ethyl-8,8-dimethyl-2-(8-oxa-3-azabicyclo[3.2.1]oct-3-yl)-5-oxo-5,6,7,8-tetrahydro-9-oxa-1,3,6-triazabenzocyclohepten-4-yl]-2-fluorophenyl}-3-(6-methoxypyridin-3-yl)urea] | >10 | 115 |  | 20 | 61 |  |  |
| COCCN1CC(C)(C)Oc2nc(N3CC4CCC(C3)O4)nc(-c3ccc(NC(=O)Nc4ccon4)c(F)c3)c2C1=O [Example 179, 1-{2-Fluoro-4-[6-(2-methoxyethyl)-8,8-dimethyl-2-(8-oxa-3-azabicyclo[3.2.1]oct-3-yl)-5-oxo-5,6,7,8-tetrahydro-9-oxa-1,3,6-triazabenzocyclohepten-4-yl]phenyl}-3-isoxazol-3-ylurea] | >10 | 1330 | 331 | 58 |  |  |  |
| Cc1ccc(NC(=O)Nc2ccc(-c3nc(N4C5CCC4COC5)nc4c3C(=O)N(C)CC(C)(C)O4)cc2)nc1 [Example 48, 1-(5-Methylpyridin-2-yl)-3-{4-[6,8,8-trimethyl-2-(3-oxa-8-azabicyclo[3.2.1]oct-8-yl)-5-oxo-5,6,7,8-tetrahydro-9-oxa-1,3,6-triazabenzocyclohepten-4-yl]phenyl}urea] | >10 | 185 | 86 | 47 |  |  |  |
| C[C@H]1COCCN1c1ccc(NC(=O)Nc2ccc(-c3nc(N4CC5CCC(C4)O5)nc4c3C(=O)N(C)CC(C)(C)O4)cc2F)cn1 [Example 73, 1-{2-Fluoro-4-[6,8,8-trimethyl-2-(8-oxa-3-azabicyclo[3.2.1]oct-3-yl)-5-oxo-5,6,7,8-tetrahydro-9-oxa-1,3,6-triazabenzocyclohepten-4-yl]phenyl}-3-[6-((S)-3-methylmorpholin-4-yl)pyridin-3-yl]urea] | 5.91 | 119 | 48 | 71 |  |  |  |
| CCN1CC(C)(C)Oc2nc(N3CC4CCC(C3)O4)nc(-c3ccc(NC(=O)Nc4ccc(N5CCN(C(=O)OC)CC5)nc4)c(F)c3)c2C1=O [Example 81, 4-[5-(3-{4-[6-Ethyl-8,8-dimethyl-2-(8-oxa-3-azabicyclo[3.2.1]oct-3-yl)-5-oxo-5,6,7,8-tetrahydro-9-oxa-1,3,6-triazabenzocyclohepten-4-yl]-2-fluorophenyl}ureido)pyridin-2-yl]piperazine-1-carboxylic acid methyl ester] | 2.1 | 108 | 17 | 124 |  |  |  |
| CCN1CC(C)(C)Oc2nc(N3CCOC[C@@H]3C)nc(-c3ccc(NC(=O)Oc4cccc(OC)c4)cc3)c2C1=O [Example 193, {4-[6-Ethyl-8,8-dimethyl-2-((S)-3-methylmorpholin-4-yl)-5-oxo-5,6,7,8-tetrahydro-9-oxa-1,3,6-triazabenzocyclohepten-4-yl]phenyl}carbamic acid 3-methoxyphenyl ester] | 9.44 |  |  | 970 |  | 4660 | > 1000 |
| CCN1CC(C)(C)Oc2nc(N3CCOC[C@@H]3C)nc(-c3ccc(NC(=O)Nc4ccncc4)c(F)c3)c2C1=O [Example 231, 1-{4-[6-Ethyl-8,8-dimethyl-2-((S)-3-methylmorpholin-4-yl)-5-oxo-5,6,7,8-tetrahydro-9-oxa-1,3,6-triazabenzocyclohepten-4-yl]-2-fluorophenyl}-3-pyridin-4-ylurea] | 0.103 | 29 | 12 | 16 |  |  |  |
| CCN1CC(C)(C)Oc2nc(N3CC4CCC(C3)O4)nc(-c3ccc(NC(=O)Nc4ccnc(OC)n4)c(F)c3)c2C1=O [Example 144, 1-{4-[6-Ethyl-8,8-dimethyl-2-(8-oxa-3-azabicyclo[3.2.1]oct-3-yl)-5-oxo-5,6,7,8-tetrahydro-9-oxa-1,3,6-triazabenzocyclohepten-4-yl]-2-fluorophenyl}-3-(2-methoxypyrimidin-4-yl)urea] | >10 | 2570 | 142 | 105 |  |  |  |
| Cn1ccc(NC(=O)Nc2ccc(-c3nc(N4CC5CCC(C4)O5)nc4c3C(=O)N(C3CCOCC3)CC(C)(C)O4)cc2)n1 [Example 16, 1-{4-[8,8-dimethyl-2-(8-oxa-3-azabicyclo[3.2.1]oct-3-yl)-5-oxo-6-(tetrahydropyran-4-yl)-5,6,7,8-tetrahydro-9-oxa-1,3,6-triazabenzocyclohepten-4-yl]phenyl}-3-(1-methyl-1H-pyrazol-3-yl)urea] | >10 | 527 | 269 | 19 |  |  |  |
| CCN1CC(C)(C)Oc2nc(N3CC4CCC(C3)O4)nc(-c3ccc(NC(=O)Nc4ccc(OC5CCOC5)cc4)c(F)c3)c2C1=O (centres unmarked) [Example 77, 1-{4-[6-Ethyl-8,8-dimethyl-2-(8-oxa-3-azabicyclo[3.2.1]oct-3-yl)-5-oxo-5,6,7,8-tetrahydro-9-oxa-1,3,6-triazabenzocyclohepten-4-yl]-2-fluorophenyl}-3-[4-(tetrahydrofuran-3-yloxy)phenyl]urea] | 4.49 | 53 | 16 | 56 |  |  |  |
| CCN1CC(C)(C)Oc2nc(N3CC4CCC(C3)O4)nc(-c3ccc(NC(=O)Nc4ccc(CN5CCCCC5)cc4)cc3)c2C1=O [Example 203, 1-{4-[6-Ethyl-8,8-dimethyl-2-(8-oxa-3-azabicyclo[3.2.1]oct-3-yl)-5-oxo-5,6,7,8-tetrahydro-9-oxa-1,3,6-triazabenzocyclohepten-4-yl]phenyl}-3-(4-piperidin-1-ylmethylphenyl)urea] | 9.61 | 43 | 111 | 96 |  |  |  |
| CCN1CC(C)(C)Oc2nc(N3CC4CCC(C3)O4)nc(-c3ccc(NC(=O)Nc4ccccn4)cc3F)c2C1=O [Example 84, 1-{4-[6-Ethyl-8,8-dimethyl-2-(8-oxa-3-azabicyclo[3.2.1]oct-3-yl)-5-oxo-5,6,7,8-tetrahydro-9-oxa-1,3,6-triazabenzocyclohepten-4-yl]-3-fluorophenyl}-3-pyridin-2-ylurea] | >10 | 760 | 255 | 23 |  |  |  |
| CCN1CC(C)(C)Oc2nc(N3CC4CCC(C3)O4)nc(-c3ccc(NC(=O)Nc4ccccn4)cc3)c2C1=O [Example 33, 1-{4-[6-Ethyl-8,8-dimethyl-2-(8-oxa-3-azabicyclo[3.2.1]oct-3-yl)-5-oxo-5,6,7,8-tetrahydro-9-oxa-1,3,6-triazabenzocyclohepten-4-yl]phenyl}-3-pyridin-2-ylurea] | 9.24 | 226 | 42 | 24 |  |  |  |
